Measured values reported in patent publication US7265120B2, “Pyrazine derivatives and pharmaceutical use thereof” (Astellas Pharma Inc., priority 2004, dated 2007).

How the values were obtained:
[1] = test system: ddY mice; assay: Anticatalepsy activity in mouse (haloperidol-induced catalepsy, bar test); type: in vivo; details: 3.2 mg/kg orally, ddY mice n=7; haloperidol 0.32 mg/kg i.p. 30 min after compound; measured 30 min after injection, up to 30 sec
Procedure: Test 2: Anticatalepsy Activity in Mouse [I] Test Method
The test compound (3.2 mg/kg) was administered orally with ddY mice (n=7). Then, haloperidol (0.32 mg/kg) was injected intraperitoneally 30 min. after the administration of the compound. Thirty min. after the injection, the cataleptic responses of mice were measured. The forelimbs of each mouse were placed on a 3 cm high, 3 mm wide horizontal bar, and the duration of cataleptic posture was measured for up to 30 sec.

[2] = biological target: T1, human A1 receptor (Homo sapiens, UniProt P30542); assay: Adenosine antagonistic activity, radioligand binding ([3H]DPCPX); details: [3H]DPCPX 4.5 nM
T1 sequence (P30542 1-326): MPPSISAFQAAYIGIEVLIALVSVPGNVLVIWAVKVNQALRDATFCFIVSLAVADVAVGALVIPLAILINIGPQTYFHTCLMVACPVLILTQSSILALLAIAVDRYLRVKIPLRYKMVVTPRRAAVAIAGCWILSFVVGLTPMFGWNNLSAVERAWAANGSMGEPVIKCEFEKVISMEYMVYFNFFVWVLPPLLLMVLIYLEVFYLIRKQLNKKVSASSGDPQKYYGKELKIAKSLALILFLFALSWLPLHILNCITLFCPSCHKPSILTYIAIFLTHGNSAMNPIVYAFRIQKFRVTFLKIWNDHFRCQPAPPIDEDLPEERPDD
Procedure: (§1) Test 1: Adenosine Antagonistic Activity
(§2) The adenosine antagonistic activity [Ki (nM)] of the test compound was examined by radioligand binding techniques using 8-cyclopentyl-1,3-dipropylxanthine, [dipropyl-2,3-^3H(N)] ([^3H]DPCPX, 4.5 nM) for human A1 receptor and [^3H]CGS 21680 (20 nM) for human A2a receptor.

[3] = biological target: human A2a receptor (Homo sapiens, UniProt P29274); assay: Adenosine antagonistic activity, radioligand binding ([3H]CGS 21680); details: [3H]CGS 21680 20 nM
Procedure: as §1, §2

human A2a receptor, sequence (P29274 whole entry): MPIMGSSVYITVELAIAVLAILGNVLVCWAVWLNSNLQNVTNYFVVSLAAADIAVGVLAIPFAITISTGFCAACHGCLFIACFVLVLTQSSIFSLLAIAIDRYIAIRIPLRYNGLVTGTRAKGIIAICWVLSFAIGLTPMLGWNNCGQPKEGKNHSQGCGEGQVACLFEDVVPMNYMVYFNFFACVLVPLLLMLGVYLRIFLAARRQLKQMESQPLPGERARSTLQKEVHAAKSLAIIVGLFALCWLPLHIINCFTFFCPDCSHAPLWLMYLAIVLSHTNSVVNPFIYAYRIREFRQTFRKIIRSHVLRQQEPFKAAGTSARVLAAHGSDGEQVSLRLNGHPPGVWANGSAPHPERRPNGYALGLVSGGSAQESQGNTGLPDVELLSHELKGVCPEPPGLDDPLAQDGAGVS

Row | SMILES | Manifestation rate of Catalepsy (number of mouse) [1] | Ki [2] [nM] | Ki [3] [nM] | melting point [°C]
1 | CC(C)n1nc(-c2nc(C#Cc3ccccc3)c(N)nc2-c2ccccc2)ccc1=O [Example 70, 6-[5-amino-3-phenyl-6-(phenylethynyl)-2-pyrazinyl]-2-isopropyl-3(2H)-pyridazinone] | 0/7 | 0.88 | 0.29 | 239 to 241
2 | CC(C)n1nc(-c2nc(C#Cc3cncn3C)c(N)nc2-c2ccccc2)ccc1=O [Example 75, 6-{5-amino-6-[(1-methyl-1H-imidazol-5-yl)ethynyl]-3-phenyl-2-pyrazinyl}-2-isopropyl-3(2H)-pyridazinone] | 0/7 | 0.72 | 0.25 | > 250
3 | CC(C)n1nc(-c2nc(NCc3ccco3)c(N)nc2-c2ccccc2)ccc1=O [Example 134, 6-{5-amino-6-[(2-furylmethyl)amino]-3-phenyl-2-pyrazinyl}-2-isopropyl-3(2H)-pyridazinone] | 1/7 | 6.66 | 2.6 | 206.5 to 209
4 | CC(C)n1nc(-c2ncc(N)nc2-c2ccc(F)cc2)ccc1=O [Example 36, 6-[5-Amino-3-(4-fluorophenyl)-2-pyrazinyl]-2-isopropyl-3(2H)-pyridazinone] | 0/7 | 23 | 6.89 | –
5 | CC(C)n1nc(-c2nc(OCc3ccccn3)c(N)nc2-c2ccccc2)ccc1=O [Example 163, 6-[5-amino-3-phenyl-6-(2-pyridylmethoxy)-2-pyrazinyl]-2-isopropyl-3(2H)-pyridazinone] | 2/7 | 1.35 | 0.42 | 150 to 151
6 | CCCCOc1nc(-c2ccc(=O)n(C)n2)c(-c2ccccc2)nc1N [Example 179, 6-(5-amino-6-butoxy-3-phenyl-2-pyrazinyl)-2-methyl-3(2H)-pyridazinone] | 1/7 | 16.4 | 1.57 | 143 to 144
7 | CC(C)n1nc(-c2nc(Cl)c(N)nc2-c2ccc(F)cc2)ccc1=O [Example 37, 6-[5-Amino-6-chloro-3-(4-fluorophenyl)-2-pyrazinyl]-2-isopropyl-3(2H)-pyridazinone] | 0/7 | 15.9 | 2.65 | –
8 | CC(C)n1nc(-c2nc(C(N)=O)c(N)nc2-c2ccccc2)ccc1=O [Example 7, 3-amino-6-(1-isopropyl-6-oxo-1,6-dihydro-3-pyridazinyl)-5-phenyl-2-pyrazinecarboxamide] | – | – | – | 224 to 226
9 | CC(C)n1nc(-c2nc(C#N)c(NC=O)nc2-c2ccccc2)ccc1=O [Example 25, [3-Cyano-5-(1-isopropyl-6-oxo-1,6-dihydro-3-pyridazinyl)-6-phenyl-2-pyrazinyl]formamide] | – | – | – | 198 to 200
10 | CC(C)n1nc(-c2ncc(N=S(C)C)nc2-c2ccccc2)ccc1=O [Example 65, 6-{5-[(dimethyl-lambda˜4˜-sulfanylidene)amino]-3-phenyl-2-pyrazinyl}-2-isopropyl-3(2H)-pyridazinone] | – | – | – | 190 to 194
11 | Cn1nc(-c2nc(NCCN3CCOCC3)c(N)nc2-c2ccccc2)ccc1=O [Example 122, 6-(5-amino-6-{[2-(4-morpholinyl)ethyl]amino}-3-phenyl-2-pyrazinyl)-2-methyl-3(2H)-pyridazinone] | – | – | – | 226 to 229
12 | CN(C)c1nc(-c2ccc(=O)n(C)n2)c(-c2ccccc2)nc1N [Example 144, 6-[5-amino-6-(dimethylamino)-3-phenyl-2-pyrazinyl]-2-methyl-3(2H)-pyridazinone] | – | – | – | 150 to 152
13 | Cn1nc(-c2ncc(N)nc2-c2ccccc2)ccc1=O [Example 20, 6-(5-Amino-3-phenyl-2-pyrazinyl)-2-methyl-3(2H)-pyridazinone] | – | – | – | 202 to 204
14 | CC(C)n1nc(-c2nc(OCCCc3ccccc3)c(N)nc2-c2ccccc2)ccc1=O [Example 175, 6-[5-amino-3-phenyl-6-(3-phenylpropoxy)-2-pyrazinyl]-2-isopropyl-3(2H)-pyridazinone] | – | – | – | 105 to 106.5
15 | Cn1nc(-c2nc(NC3CCN(Cc4ccccc4)CC3)c(N)nc2-c2ccccc2)ccc1=O [Example 129, 6-{5-amino-6-[(1-benzyl-4-piperidinyl)amino]-3-phenyl-2-pyrazinyl}-2-methyl-3(2H)-pyridazinone] | – | – | – | 191 to 194
16 | CC(C)n1nc(-c2nc(-n3cccc3)c(N)nc2-c2ccccc2)ccc1=O [Example 147, 6-[5-amino-3-phenyl-6-(1H-pyrrol-1-yl)-2-pyrazinyl]-2-isopropyl-3(2H)-pyridazinone] | – | – | – | 132 to 136

Row | SMILES | Manifestation rate of Catalepsy (number of mouse) [1] | Ki [2] [nM] | Ki [3] [nM] | melting point [°C]
17 | CC(=O)NCCNc1nc(-c2ccc(=O)n(C(C)C)n2)c(-c2ccccc2)nc1N [Example 133, N-(2-{[3-amino-6-(1-isopropyl-6-oxo-1,6-dihydro-3-pyridazinyl)-5-phenyl-2-pyrazinyl]amino}ethyl)acetamide] | – | – | – | 147 to 149
18 | CC(C)n1nc(-c2nc(-c3ccccc3)c(N)nc2-c2ccccc2)ccc1=O [Example 78, 6-(5-amino-3,6-diphenyl-2-pyrazinyl)-2-isopropyl-3(2H)-pyridazinone] | – | – | – | 225 to 226
19 | COCCNc1nc(-c2ccc(=O)n(C(C)C)n2)c(-c2ccccc2)nc1N [Example 102, 6-{5-amino-6-[(2-methoxyethyl)amino]-3-phenyl-2-pyrazinyl}-2-isopropyl-3(2H)-pyridazinone] | – | – | – | 208 to 209.5
20 | CC(C)n1nc(-c2nc(OCCN3CCOCC3)c(N)nc2-c2ccccc2)ccc1=O [Example 172, 6-{5-amino-6-[2-(4-morpholinyl)ethoxy]-3-phenyl-2-pyrazinyl}-2-isopropyl-3(2H)-pyridazinone] | – | – | – | 139 to 143
21 | CCCCNc1nc(-c2ccc(=O)n(C(C)C)n2)c(-c2ccccc2)nc1N [Example 99, 6-[5-amino-6-(butylamino)-3-phenyl-2-pyrazinyl]-2-isopropyl-3(2H)-pyridazinone] | – | – | – | 200 to 202
22 | CC(C)n1nc(-c2nc(N3CCN(Cc4ccccn4)CC3)c(N)nc2-c2ccccc2)ccc1=O [Example 114, 6-{5-amino-3-phenyl-6-[4-(2-pyridylmethyl)-1-piperazinyl]-2-pyrazinyl}-2-isopropyl-3(2H)-pyridazinone] | – | – | – | 88 to 91
23 | CC(C)n1nc(-c2nc(S(C)(=O)=O)c(N)nc2-c2ccccc2)ccc1=O [Example 55, 6-[5-amino-6-(methylsulfonyl)-3-phenyl-2-pyrazinyl]-2-isopropyl-3(2H)-pyridazinone] | – | – | – | 249 to 251
24 | CC(C)n1nc(-c2nc(N3CCCC3)c(N)nc2-c2ccccc2)ccc1=O [Example 141, 6-[5-amino-3-phenyl-6-(1-pyrrolidinyl)-2-pyrazinyl]-2-isopropyl-3(2H)-pyridazinone] | – | – | – | 192 to 194.5
25 | CC(C)n1nc(-c2nc(OCc3ccco3)c(N)nc2-c2ccccc2)ccc1=O [Example 164, 6-[5-amino-6-(2-furylmethoxy)-3-phenyl-2-pyrazinyl]-2-isopropyl-3(2H)-pyridazinone] | – | – | – | 172 to 174
26 | CC(C)n1nc(-c2nc(OC3CCN(Cc4ccccc4)C3)c(N)nc2-c2ccccc2)ccc1=O (stereo not drawn) [Example 176, 6-{5-amino-6-[(1-benzyl-3-pyrrolidinyl)oxy]-3-phenyl-2-pyrazinyl}-2-isopropyl-3(2H)-pyridazinone] | – | – | – | 179 to 181
27 | CC(C)n1nc(-c2nc(-n3cccn3)c(N)nc2-c2ccccc2)ccc1=O [Example 149, 6-[5-amino-3-phenyl-6-(1H-pyrazol-1-yl)-2-pyrazinyl]-2-isopropyl-3(2H)-pyridazinone] | – | – | – | 210 to 212
28 | COCOCC#Cc1nc(-c2ccc(=O)n(C(C)C)n2)c(-c2ccccc2)nc1N [Example 71, 6-{5-amino-6-[3-(methoxymethoxy)-1-propyn-1-yl]-3-phenyl-2-pyrazinyl}-2-isopropyl-3(2H)-pyridazinone] | – | – | – | 133 to 135
29 | COc1ccc(CNc2nc(-c3ccccc3)c(-c3ccc(=O)n(C(C)C)n3)nc2C(=O)O)cc1 [Example 46, 6-(1-isopropyl-6-oxo-1,6-dihydro-3-pyridazinyl)-3-[(4-methoxybenzyl)amino]-5-phenyl-2-pyrazinecarboxylic acid] | – | – | – | 216.5 to 217
30 | CC(C)n1nc(-c2nc(NCCc3ccccc3)c(N)nc2-c2ccccc2)ccc1=O [Example 135, 6-{5-amino-3-phenyl-6-[(2-phenylethyl)amino]-2-pyrazinyl}-2-isopropyl-3(2H)-pyridazinone] | – | – | – | 204.5 to 207
31 | CC(C)n1nc(-c2nc(-n3cnc4ccccc43)c(N)nc2-c2ccccc2)ccc1=O [Example 152, 6-[5-amino-6-(1H-benzimidazol-1-yl)-3-phenyl-2-pyrazinyl]-2-isopropyl-3(2H)-pyridazinone] | – | – | – | > 250
32 | CC(C)n1nc(-c2nc(C3=CCN(C)CC3)c(N)nc2-c2ccccc2)ccc1=O | – | – | – | 209 to 211
